The conditions of the data set: 298.15 K; 101.33 kPa; Liquid; Vibrating tube method.

Numbers after ± are expanded uncertainties.

In general, mass density refers to mass per unit of volume. As for `FC(F)(F)C(F)(F)C(F)(F)C(F)(F)C(F)(F)C(F)(F)C(F)(F)C(F)(F)F` [octadecafluorooctane], the mass density worked out at 1754.28 ± 0.44 kg/m3.

In the case of `FC(F)(F)C(F)(F)C(F)(F)C(F)(F)C(F)(F)C(F)(F)F` [perfluorohexane], the mass density is reported as 1670.07 ± 0.32 kg/m3.

The values are drawn from the NIST ThermoML archive (doi:10.1016/j.fluid.2010.05.018).
